Laboratory results published in patent US12478629B2, “Use of glucocorticoids for the treatment of epithelial microbial infections of a fluid containing organ with a natural exterior orifice in mammals” (VIRBAC, priority 2018, dated 2025).

Tested on: mild clinical mastitis
Assay: Multicenter clinical field study, intramammary treatment of mild clinical mastitis
Assay type: in vivo, lactating cows and heifers
Experimental: The purpose of this multicenter clinical field study is to evaluate the efficacy and the safety of HCA at a dosage of 20 mg in 10 ml of Vaseline oil based formulation every 12±2 h hours (minimum of one and maximum of four treatments) in the intramammary treatment of mild clinical mastitis in lactating cows; more specifically to assess the efficacy (clinical cure rate) of HCA alone in the treatment of udder inflammation (mild clinical mastitis), under field conditions and to assess the safety and the risk of aggravation or relapses during and after the treatment with HCA alone.
Animals (50 lactating cows and heifers presenting clinical symptoms of mastitis) have been intramammarily treated with one syringe (10 mL) containing 20 mg of HCA at each time point for a minimum of 1 and a maximum of 4 treatments in a 12±2 h interval (each morning or evening milking time, respectively). Depending on the result of the clinical examination and the clinical status classification, the animal has been treated until the animal was classified as clinically cured, failure or the maximum of 4 treatments is reached.
Before the tested treatment, a sample of milk of each animal has been collected to be tested for bacteriology of classical pathogenic bacteria; among the 50 animals, 34 produced a milk containing pathogenic bacteria, no pathogenic bacteria has been detected in the milk of the 16 remaining animals, it can nevertheless not be excluded that those 16 animals were infected by a non-tested pathogenic bacteria.

## CCC(=O)O[C@]1(C(=O)COC(C)=O)CC[C@H]2[C@@H]3CCC4=CC(=O)CC[C@]4(C)[C@H]3[C@@H](O)C[C@@]21C [HCA, hydrocortisone 21-acetate 17α-propionate]
16 animals bacteriologically negative at DO
  animals cured (clinical cure rate): 56.3%
34 animals bacteriologically positive at DO
  animals cured (clinical cure rate): 20.6%
All 50 animals, 20 mg HCA in 10 mL intramammary every 12±2 h, after 3 or 4 administrations
  animals cured (clinical cure rate): 32%
intramammary, 20 mg in 10 mL, 1 to 4 treatments
  adverse effect of the treatment / tolerance: No adverse effect
